Key:
[1] = tested on: L1210 leukemia; assay: L1210 leukemia survival time in mice (ip implanted); format: in vivo, mice (CD2F1); conditions: for %T/C (average survival time treated/control × 100): cures not included
Method: (§1) Leukemia L1210 cells were obtained from the Frederick Cancer Research Facility, Division of Cancer Treatment Tumor Repository of the National Cancer Institute, and were maintained by serial passage in tissue culture. Every 8 weeks, tumor cells were injected intraperitoneally into five donor CD2 F1 mice 8- to 10- weeks of age and were allowed to grow for 7 days. The peritoneal fluid was withdrawn and the suspension was centrifuged for 5 min at 1600 g. The supernatant was decanted and 10^5 cells/mL were seeded into 10 mL of RPMI 1640 medium supplemented with 10% fetal bovine serum and 1% L-glutamine, and once again maintained in culture. To assay for antineoplastic activity, 0.1 mL of the cell suspension containing 10^5 L1210 leukemia cells was injected ip into each recipient mouse. Test compounds were administered over a wide range of dosage levels, beginning 24 h after tumor implantation, and continued once daily for 6 consecutive days. All drugs were administered ip as a solution in 100% dimethylsulfoxide (DMSO), in a volume not exceeding 0.025 mL. […] Mice were weighed during the course of the experiments, and the percentage change in body weight from onset to termination of therapy was used as an indication of drug toxicity. Determination of the sensitivity of neoplasms to these agents was based upon the prolongation of survival time afforded by the drug treatments.
(§2) ^a Administered ip once daily for six consecutive days, beginning 24 hours after tumor implantation, with 5-10 mice being used per group. ^b Average percent change in body weight from onset to termination of therapy. ^c % T/C=average survival time of treated/control mice×100; cures (>60-day survivors) are listed separately and are not included in this calculation.

[2] = Body weight change / toxicity in L1210-bearing mice; format: in vivo, mice (CD2F1); conditions: L1210-bearing mice
Method: as §1, §2

[3] = tested on: M109 lung carcinoma; assay: M109 lung carcinoma, sc implanted; format: in vivo, BALB/c mice
Method: The M5076 reticulum cell sarcoma was passaged biweekly by sc transfer of tumor fragments into C57BL/6 mice, and the M109 lung carcinoma was similarly passaged in BALB/c mice. The LX-1 human lung carcinoma was passaged sc every two to three weeks in BALB/c-background athymic (nu/nu) mice. For use in these systems, compound III was dissolved in: (a) 100% DMSO and administered by iv injection in a fixed volume of 10 microliters; or (b) DMSO diluted with saline to a final concentration of 10% DMSO and administered iv in a volume of 0.01 milliliter/g of body weight. […] Mitomycin C and cyclophosphamide were dissolved and administered in saline. BCNU and MeCCNU were dissolved in ethanol and diluted 1:9 (v/v) with water prior to administration.
Five mice per group were employed in experiments with the B16F10 melanoma, and 8 mice per group with the M5076 sarcoma, the M109 carcinoma and the LX-1 carcinoma. A minimum of two dose levels per compound were included in each evaluation and drug therapy was initiated 24 h after tumor implantation for the M5076 sarcoma and M109 carcinoma. In the LX-1 experiment, tumor bearing mice were selected and sorted into treatment and control groups on day 6 post-tumor implant such that all tumor weights ranged from 50-100 mg and median tumor weights per group were reasonably similar. Therapeutic results are presented in terms of: (a) increases in lifespan reflected by the relative median survival time (MST) of treated versus control groups (i.e., %T/C values), and by long-term survivors, and (b) primary tumor growth inhibition (i.e., T-C values) determined by calculating the relative median times for treated (T) and control untreated (C) mice to grow tumors of a 0.5 g size for the LX-1 carcinoma or a 1 g size for the murine neoplasms. Tumor weights were interchangeable with tumor size on the basis of 1 mm^3 =1 mg. […] The activity criterion for tumor inhibition was a delay in tumor growth consistent with one log10 cell kill (LCK). The absolute T-C value needed to attain this level of efficacy varied from experiment to experiment and depended upon the tumor volume doubling time of the control mice in each study. Treated mice dying prior to day 10 in the ip M109 experiment, or dying before their tumors achieved 0.5 g for the LX-1 carcinoma or 1 g in size for all other sc tumor models, were considered to have died from drug toxicity. Groups of mice with more than one death due to drug toxicity were not used in the evaluation of antitumor efficacy. Statistical evaluations of data were performed using Gehan's generalized Wilcoxan test (Gehan, Biometrika, 1965, 52, 203-233).
Compound III was also evaluated against the M109 lung carcinoma implanted subcutaneously (sc). In the initial test using this model, a dose of 50 mg/kg per injection of this compound was administered intravenously (iv) in 10% DMSO in saline every fourth day for a total of three injections. […] Mitomycin C, used as a reference drug, produced a maximum %T/C of 103 and a delay in tumor growth of 10 days (data not shown). A subsequent evaluation of compound III was performed using four different doses on a slightly different schedule, i.e., 24, 32, 48 and 64 mg/kg administered every third day for four total injections, and two vehicles, 10% DMSO in saline and 100% DMSO. […] Cyclophosphamide and mitomycin C were included as reference drugs in the last experiment. The former compound produced a maximum %T/C of 143 and a delay in tumor growth of 8.8 days, while mitomycin C produced a maximum %T/C of 134 and a T-C value of 9.3 days (data not shown). As reported earlier, compound X achieved a maximum %T/C of 136 and a maximum T-C value of 14.5 days against this tumor (Shyam, et al., J. Med. Chem., 1993, 36, 3496).

[4] = reference drugs in last experiment (experiment b)
[5] = reference drug in initial test (experiment a)

Row | Compound | %T/C (average survival time treated/control × 100) ([1]; 5 mg/kg ip once daily × 6) | %T/C (average survival time treated/control × 100) ([1]; 10 mg/kg ip once daily × 6) | %T/C (average survival time treated/control × 100) ([1]; 15 mg/kg ip once daily × 6) | %T/C (average survival time treated/control × 100) ([1]; 20 mg/kg ip once daily × 6) | % 60 Day Survivors (cures) ([1]; 50 mg/kg ip once daily × 6) | Av. Wt. Change % ([2]; 5 mg/kg ip once daily × 6) | Av. Wt. Change % ([2]; 10 mg/kg ip once daily × 6) | Av. Wt. Change % ([2]; 15 mg/kg ip once daily × 6) | Av. Wt. Change % ([2]; 20 mg/kg ip once daily × 6) | Av. Wt. Change % ([2]; 25 mg/kg ip once daily × 6) | Av. Wt. Change % ([2]; 50 mg/kg ip once daily × 6) | Av. Wt. Change % ([2]; 100 mg/kg ip once daily × 6) | % 60 Day Survivors (cures) ([1]; 10 mg/kg ip once daily × 6) | other results
1 | CCOC(=O)C(Cc1ccccc1)NC(=O)N(N(CCCl)S(C)(=O)=O)S(C)(=O)=O (centres unmarked) [Compound IX, 1,2-Bis(methylsulfonyl)-1-(2-chloroethyl)-2-(1-ethoxycarbonyl-2-phenylethyl)aminocarbonylhydrazine] | 147% | 165% | 160% | 174% | 60% | -2.5% | -0.5% | -1.9% | -1.9% | -0.9% | -2.0% | -2.0% |  | %T/C (average survival time treated/control × 100) ([1]; 25 mg/kg ip once daily × 6): 177%; %T/C (average survival time treated/control × 100) ([1]; 50 mg/kg ip once daily × 6): 225%; % 60 Day Survivors (cures) ([1]; 100 mg/kg ip once daily × 6): 100%; % 60 Day Survivors (cures) ([1]; 150 mg/kg ip once daily × 6): 20%; %T/C (average survival time treated/control × 100) ([1]; 150 mg/kg ip once daily × 6): 169%; Av. Wt. Change % ([2]; 150 mg/kg ip once daily × 6): -5.0%
2 | C=CCNC(=O)N(N(CCCl)S(C)(=O)=O)S(C)(=O)=O [Compound V, 2-Allylaminocarbonyl-1,2-bis(methylsulfonyl)-1-(2-chloroethyl)hydrazine] | 184% | 394% |  |  |  | -1.6% | -2.1% | -2.9% |  |  |  |  | 40% | % 60 Day Survivors (cures) ([1]; 5 mg/kg ip once daily × 6): 20%; % 60 Day Survivors (cures) ([1]; 15 mg/kg ip once daily × 6): 100%; antileukemic activity / therapeutic potential (in words) ([1]; qualitative, L1210 leukemia in mice): highly efficacious against this tumor
3 | CS(=O)(=O)N(CCCl)N(C(=O)NCCCCl)S(C)(=O)=O [Compound VI, 1,2-Bis(methylsulfonyl)-1-(2-chloroethyl)-2-(3-chloropropyl)aminocarbonylhydrazine] | 111% | 187% | 192% |  |  | -2.8% | -5.6% | -8.8% |  |  |  |  |  | % 60 Day Survivors (cures) ([1]; 15 mg/kg ip once daily × 6): 20%; cure rate (in words) ([1]; highest dosage level examined (15 mg/kg × 6)): partial cure rate of tumor-bearing mice
4 | CCOC(=O)CNC(=O)N(N(CCCl)S(C)(=O)=O)S(C)(=O)=O [Compound VII, 1,2-Bis(methylsulfonyl)-1-(2-chloroethyl)-2-(ethoxycarbonylmethyl)aminocarbonylhydrazine] | 151% | 202% | 202% | 191% | 80% | -1.5% | -1.4% | -0.5% | -3.7% | -0.5% | -2.5% | -4.0% | 20% | % 60 Day Survivors (cures) ([1]; 20 mg/kg ip once daily × 6): 20%; % 60 Day Survivors (cures) ([1]; 25 mg/kg ip once daily × 6): 100%; %T/C (average survival time treated/control × 100) ([1]; 50 mg/kg ip once daily × 6): 138%; % 60 Day Survivors (cures) ([1]; 75 mg/kg ip once daily × 6): 60%; %T/C (average survival time treated/control × 100) ([1]; 75 mg/kg ip once daily × 6): 119%; %T/C (average survival time treated/control × 100) ([1]; 100 mg/kg ip once daily × 6): 115%; Av. Wt. Change % ([2]; 75 mg/kg ip once daily × 6): -1.5%
5 | CCOC(=O)C(C)NC(=O)N(N(CCCl)S(C)(=O)=O)S(C)(=O)=O (centres unmarked) [Compound VIII, 1,2-Bis(methylsulfonyl)-1-(2-chloroethyl)-2-(1-ethoxycarbonylethyl)aminocarbonylhydrazine] | 170% | 178% | 185% | 227% | 100% | -2.0% | -1.4% | -0.5% | -1.5% | -2.5% | -3.3% | -2.5% | 20% | % 60 Day Survivors (cures) ([1]; 25 mg/kg ip once daily × 6): 60%; %T/C (average survival time treated/control × 100) ([1]; 25 mg/kg ip once daily × 6): 239%; % 60 Day Survivors (cures) ([1]; 75 mg/kg ip once daily × 6): 80%; %T/C (average survival time treated/control × 100) ([1]; 75 mg/kg ip once daily × 6): 125%; %T/C (average survival time treated/control × 100) ([1]; 100 mg/kg ip once daily × 6): 118%; Av. Wt. Change % ([2]; 75 mg/kg ip once daily × 6): -2.5%
6 | O=P1(N(CCCl)CCCl)NCCCO1 (centres unmarked) [Cyclophosphamide, cyclophosphamide, reference compound] |  |  |  |  |  |  |  |  |  |  |  |  |  | delay in tumor growth (T-C) [3, 4]: 8.8 days; maximum %T/C [3, 4]: 143%
7 | CO[C@@]12[C@H](COC(N)=O)C3=C(C(=O)C(C)=C(N)C3=O)N1C[C@@H]1N[C@@H]12 [Mitomycin C, mitomycin C, reference compound] |  |  |  |  |  |  |  |  |  |  |  |  |  | delay in tumor growth (T-C) [3, 5]: 10 days; maximum %T/C [3, 5]: 103%; delay in tumor growth (T-C) [3, 4]: 9.3 days; maximum %T/C [3, 4]: 134%
